# Data: patent publication US11873298B2, “Compounds and uses thereof” (JANSSEN PHARMACEUTICA NV, priority 2017, dated 2024)
# Key:
# Format in all cases: cell-based
# Ole1 = target: T1, Ole1 (Saccharomyces cerevisiae, UniProt P21147); assay: Growth inhibition of yeast strain expressing Ole1 as sole desaturase; settings: yeast strain expressing Ole1 as sole desaturase
# T1 construct: expressed in transfected cells; host or cells: S. cerevisiae ole1Δ strain (W303 pdr1Δ pdr3Δ background), plasmid pRS316 with TDH3 promoter and CYC1 terminator
# T1 sequence (P21147 1-510): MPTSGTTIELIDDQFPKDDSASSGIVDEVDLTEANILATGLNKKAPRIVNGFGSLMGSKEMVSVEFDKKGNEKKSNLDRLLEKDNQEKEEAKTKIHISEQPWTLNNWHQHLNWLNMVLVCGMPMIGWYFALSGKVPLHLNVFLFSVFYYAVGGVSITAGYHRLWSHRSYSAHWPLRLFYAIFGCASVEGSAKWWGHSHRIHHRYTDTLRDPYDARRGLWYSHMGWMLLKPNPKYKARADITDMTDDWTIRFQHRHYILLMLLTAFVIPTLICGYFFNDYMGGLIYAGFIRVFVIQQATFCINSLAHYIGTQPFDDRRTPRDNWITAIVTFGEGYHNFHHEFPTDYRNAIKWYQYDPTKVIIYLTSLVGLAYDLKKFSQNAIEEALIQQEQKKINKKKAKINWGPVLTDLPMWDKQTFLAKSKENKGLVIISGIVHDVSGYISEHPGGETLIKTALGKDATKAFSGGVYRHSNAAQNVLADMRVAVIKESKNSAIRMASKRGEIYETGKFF
# Summary of the method: (§1)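 OD600 growth read-out. ole1Δ yeast, pdr1Δ pdr3Δ, with Ole1/SCD1/SCD5 on a plasmid; SX-Ura media throughout; 2× cell density 0.02 in CSM-Galactose; DMSO compound dilutions; humidified 30° C.; Ole1 stopped at 24 h, SCD1/SCD5 at 40 h.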
# SCD5 = target: T2, SCD5 (Homo sapiens, UniProt Q86SK9); assay: Growth inhibition of humanized yeast strain expressing SCD5 as sole desaturase; settings: humanized yeast strain expressing SCD5
# T2 construct: host or cells: S. cerevisiae ole1Δ strain (W303 pdr1Δ pdr3Δ background), plasmid pRS316 with TDH3 promoter and CYC1 terminator
# T2 sequence (Q86SK9 1-330): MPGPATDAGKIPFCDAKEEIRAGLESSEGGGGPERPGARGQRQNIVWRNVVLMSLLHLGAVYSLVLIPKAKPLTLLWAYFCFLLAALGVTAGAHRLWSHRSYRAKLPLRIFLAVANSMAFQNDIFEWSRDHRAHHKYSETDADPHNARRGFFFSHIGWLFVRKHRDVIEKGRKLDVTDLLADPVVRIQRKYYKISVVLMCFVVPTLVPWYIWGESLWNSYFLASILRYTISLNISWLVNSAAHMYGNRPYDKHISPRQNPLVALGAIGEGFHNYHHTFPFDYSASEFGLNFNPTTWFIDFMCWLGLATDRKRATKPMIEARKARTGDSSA
# Summary of the method: as §1
# SCD1 = target: T3, SCD1 (Homo sapiens, UniProt O00767); assay: Growth inhibition of humanized yeast strain expressing SCD1 as sole desaturase; settings: humanized yeast strain expressing SCD1
# T3 construct: host or cells: S. cerevisiae ole1Δ strain (W303 pdr1Δ pdr3Δ background), plasmid pRS316 with TDH3 promoter and CYC1 terminator
# T3 sequence (O00767 1-359): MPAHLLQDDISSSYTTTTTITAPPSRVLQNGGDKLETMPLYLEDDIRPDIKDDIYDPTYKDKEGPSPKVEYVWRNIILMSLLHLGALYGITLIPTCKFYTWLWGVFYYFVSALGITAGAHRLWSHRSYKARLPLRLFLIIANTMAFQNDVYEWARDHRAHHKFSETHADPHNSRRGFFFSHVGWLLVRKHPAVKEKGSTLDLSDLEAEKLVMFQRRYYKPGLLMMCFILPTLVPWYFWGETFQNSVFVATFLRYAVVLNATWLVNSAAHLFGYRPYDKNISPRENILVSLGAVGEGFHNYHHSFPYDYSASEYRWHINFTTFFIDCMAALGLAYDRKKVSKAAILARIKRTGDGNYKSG
# Summary of the method: as §1
SMILES,IC50 (Ole1) [µM],OLE1 % Max Inhibition (Ole1) [%],IC50 (SCD5) [µM],SCD5 % Max Inhibition (SCD5) [%],IC50 (SCD1) [µM],SCD1 % Max Inhibition (SCD1) [%]
C[C@H]1CN(c2noc(C3CCN(C(=O)C4CC(=O)N(c5cccc(Cl)c5)C4)CC3)n2)C[C@H](C)O1 (stereo partly shown) [Compound 324],> 45,90.5,> 45,68.7,> 45,74.9
O=C(C1CC(=O)N(c2cccc(Cl)c2)C1)N1CCC(c2nc(N3CCC4(CC3)COC4)no2)CC1 (stereo not shown) [Compound 325],> 45,79.2,> 45,67.2,> 45,73.7
Cc1nn(C)c2cc(-c3nc(C4CCN(C(=O)CNC(=O)c5ccccc5)CC4)no3)ccc12 [Compound 326],> 45,7.5,> 45,26.5,,77.1
Cc1nn(C)c2cc(-c3noc(N4CCN(C(=O)N5CCCCC5)CC4)n3)ccc12 [Compound 327],> 45,74.8,> 45,68.0,,66.5
Cc1nn(C)c2cc(-c3noc(C4CCN(C(=O)CNC(=O)c5cc(Cl)ccc5C(F)(F)F)CC4)n3)ccc12 [Compound 328],> 45,21.9,> 45,80.5,,86.6
Cc1nn(C)c2cc(-c3noc(C4CCN(C(=O)N[C@@H]5C[C@@H]5c5ccccc5)CC4)n3)ccc12 [Compound 329],> 45,12.5,> 45,13.4,,16.2
Cc1nn(C)c2cc(-c3nc(C4CCN(C(=O)C5CC(=O)N(c6cccc(C#N)c6)C5)CC4)no3)ccc12 (stereo not shown) [Compound 331],> 45,13.7,> 45,24.9,> 45,41.9
N#Cc1cccc(N2CC(C(=O)N3CCC(c4nc(N5CC6(COC6)C5)no4)CC3)CC2=O)c1 (stereo not shown) [Compound 332],> 45,77.0,> 45,31.5,> 45,59.7
Cc1ccc(N2CC(C(=O)N3CCC(c4nc(N5CC6(COC6)C5)no4)CC3)CC2=O)nc1 (stereo not shown) [Compound 333],> 45,81.2,> 45,62.3,> 45,55.6
O=C(c1ccccc1)N1CCC(c2nc(N3CC4(COC4)C3)no2)CC1 [Compound 334],> 45,84.4,> 45,66.7,,49.3
O=C(c1ccccc1)N1CCC(c2nc(N3CC4(CCCO4)C3)no2)CC1 [Compound 335],> 45,81.5,> 45,61.2,,54.0
CC(C)c1ccc(C(=O)N2CCC(c3nc(N4CC5(CCCO5)C4)no3)CC2)cc1 [Compound 336],> 45,86.7,> 45,74.1,,56.9
CC(C)c1ccc(C(=O)N2CCC(c3nc(N4CC5(COC5)C4)no3)CC2)cc1 [Compound 337],> 45,86.4,> 45,61.6,,49.6
CC(C)n1cc(-c2noc(C3CCN(C(=O)C4CC(=O)N(c5cccc(Cl)c5)C4)CC3)n2)cn1 (stereo not shown) [Compound 338],> 45,85.2,> 45,76.3,> 45,60.0
